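Five concentrations, 48 hours, 96-well plates. The concentration for full growth arrest is given as TGI.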
Legend:
Assay in all cases: growth of human tumour cells (NCI), 48 h
SK-OV-3 ovarian = tested on: SK-OV-3 ovarian
NCI-H522 lung = tested on: NCI-H522 lung
HT29 colon = tested on: HT29 colon
SK-MEL-2 melanoma = tested on: SK-MEL-2 melanoma
DU-145 prostate = tested on: DU-145 prostate
SNB-75 CNS = tested on: SNB-75 CNS
T-47D breast = tested on: T-47D breast
SF-268 CNS = tested on: SF-268 CNS
HCC-2998 colon = tested on: HCC-2998 colon
RXF 393 renal = tested on: RXF 393 renal
COLO 205 colon = tested on: COLO 205 colon
IGROV1 ovarian = tested on: IGROV1 ovarian
TK-10 renal = tested on: TK-10 renal
HL-60(TB) leukemia = tested on: HL-60(TB) leukemia
OVCAR-8 ovarian = tested on: OVCAR-8 ovarian
SF-295 CNS = tested on: SF-295 CNS
SN12C renal = tested on: SN12C renal
HS 578T breast = tested on: HS 578T breast
UACC-257 melanoma = tested on: UACC-257 melanoma
MALME-3M melanoma = tested on: MALME-3M melanoma
LOX IMVI melanoma = tested on: LOX IMVI melanoma
MCF7 breast = tested on: MCF7 breast
CAKI-1 renal = tested on: CAKI-1 renal
OVCAR-5 ovarian = tested on: OVCAR-5 ovarian
PC-3 prostate = tested on: PC-3 prostate
A549 NSCLC = tested on: A549 NSCLC
UACC-62 melanoma = tested on: UACC-62 melanoma
HCT-15 colon = tested on: HCT-15 colon
NCI-H460 lung = tested on: NCI-H460 lung
SF-539 CNS = tested on: SF-539 CNS
K-562 leukemia = tested on: K-562 leukemia
HOP-92 NSCLC = tested on: HOP-92 NSCLC
M14 melanoma = tested on: M14 melanoma
KM12 colon = tested on: KM12 colon
HOP-62 NSCLC = tested on: HOP-62 NSCLC
OVCAR-4 ovarian = tested on: OVCAR-4 ovarian
SK-MEL-28 melanoma = tested on: SK-MEL-28 melanoma
UO-31 renal = tested on: UO-31 renal
RPMI-8226 leukemia = tested on: RPMI-8226 leukemia
NCI/ADR-RES ovarian = tested on: NCI/ADR-RES ovarian
ACHN renal = tested on: ACHN renal
OVCAR-3 ovarian = tested on: OVCAR-3 ovarian
SK-MEL-5 melanoma = tested on: SK-MEL-5 melanoma
NCI-H23 lung = tested on: NCI-H23 lung
MDA-N = tested on: MDA-N
786-0 renal = tested on: 786-0 renal
EKVX NSCLC = tested on: EKVX NSCLC
HCT-116 colon = tested on: HCT-116 colon
SNB-19 CNS = tested on: SNB-19 CNS
SW-620 colon = tested on: SW-620 colon
MDA-MB-231 breast = tested on: MDA-MB-231 breast
CCRF-CEM leukemia = tested on: CCRF-CEM leukemia
MDA-MB-435 = tested on: MDA-MB-435
NCI-H226 lung = tested on: NCI-H226 lung
U251 CNS = tested on: U251 CNS
BT-549 breast = tested on: BT-549 breast
SR leukemia = tested on: SR leukemia
A498 renal = tested on: A498 renal
MOLT-4 leukemia = tested on: MOLT-4 leukemia

COC(=O)[C@]1(C)CCC[C@]2(C)[C@H]3CC[C@]4(C(C)C)OO[C@@H](O4)[C@]34O[C@@H]4C[C@H]21
TGI (SK-OV-3 ovarian): 4.83 µM
TGI (NCI-H522 lung): 3.43 µM
TGI (HT29 colon): 3.91 µM
TGI (SK-MEL-2 melanoma): 29.1 µM
TGI (DU-145 prostate): 3.07 µM
TGI (SNB-75 CNS): 11.2 µM
TGI (T-47D breast): 3.84 µM
TGI (SF-268 CNS): 5.31 µM
TGI (HCC-2998 colon): 4.88 µM
TGI (RXF 393 renal): 11.6 µM
TGI (COLO 205 colon): 5.2 µM
TGI (IGROV1 ovarian): 0.336 µM
TGI (TK-10 renal): 12.2 µM
TGI (HL-60(TB) leukemia): 4.88 µM
TGI (OVCAR-8 ovarian): 26.5 µM
TGI (SF-295 CNS): 8.77 µM
TGI (SN12C renal): 12 µM
TGI (HS 578T breast): 8.65 µM
TGI (UACC-257 melanoma): 32.1 µM
TGI (MALME-3M melanoma): 20.5 µM
TGI (LOX IMVI melanoma): 1.04 µM
TGI (MCF7 breast): 5.75 µM
TGI (CAKI-1 renal): 0.927 µM
TGI (OVCAR-5 ovarian): 16.3 µM
TGI (PC-3 prostate): 3.11 µM
TGI (A549 NSCLC): 3.56 µM
TGI (UACC-62 melanoma): 17.7 µM
TGI (HCT-15 colon): 7.06 µM
TGI (NCI-H460 lung): 3.88 µM
TGI (SF-539 CNS): > 55.6 µM
TGI (K-562 leukemia): > 100 µM
TGI (HOP-92 NSCLC): 4.14 µM
TGI (M14 melanoma): 17.3 µM
TGI (KM12 colon): 11.2 µM
TGI (HOP-62 NSCLC): 7 µM
TGI (OVCAR-4 ovarian): 3.73 µM
TGI (SK-MEL-28 melanoma): > 63.9 µM
TGI (UO-31 renal): 1.46 µM
TGI (RPMI-8226 leukemia): > 100 µM
TGI (NCI/ADR-RES ovarian): 30.9 µM
TGI (ACHN renal): 1.75 µM
TGI (OVCAR-3 ovarian): 3.65 µM
TGI (SK-MEL-5 melanoma): 8.02 µM
TGI (NCI-H23 lung): 23.5 µM
TGI (MDA-N): 6.13 µM
TGI (786-0 renal): 3.49 µM
TGI (EKVX NSCLC): 3.71 µM
TGI (HCT-116 colon): 3.03 µM
TGI (SNB-19 CNS): 24.5 µM
TGI (SW-620 colon): > 33.7 µM
TGI (MDA-MB-231 breast): 15 µM
TGI (CCRF-CEM leukemia): > 100 µM
TGI (MDA-MB-435): 3.89 µM
TGI (NCI-H226 lung): 13.5 µM
TGI (U251 CNS): 13.5 µM
TGI (BT-549 breast): 10.9 µM

CC(=O)OCC12C(OC(C)=O)C(=O)C3C(OC(C)=O)C14OC3(C)COC(=O)c1cccnc1C(C)C(C)C(=O)OC(C(OC(C)=O)C2OC(C)=O)C4(C)O (centres undefined)
TGI (SK-OV-3 ovarian): > 100 µM
TGI (NCI-H522 lung): > 100 µM
TGI (HT29 colon): > 100 µM
TGI (SK-MEL-2 melanoma): > 100 µM
TGI (DU-145 prostate): > 100 µM
TGI (SNB-75 CNS): > 100 µM
TGI (T-47D breast): > 100 µM
TGI (SF-268 CNS): > 100 µM
TGI (HCC-2998 colon): > 100 µM
TGI (RXF 393 renal): > 100 µM
TGI (COLO 205 colon): > 100 µM
TGI (IGROV1 ovarian): > 100 µM
TGI (TK-10 renal): > 100 µM
TGI (HL-60(TB) leukemia): > 100 µM
TGI (OVCAR-8 ovarian): > 100 µM
TGI (SF-295 CNS): > 100 µM
TGI (SN12C renal): > 100 µM
TGI (SR leukemia): > 100 µM
TGI (HS 578T breast): > 100 µM
TGI (UACC-257 melanoma): > 100 µM
TGI (MALME-3M melanoma): > 100 µM
TGI (LOX IMVI melanoma): > 100 µM
TGI (MCF7 breast): > 100 µM
TGI (CAKI-1 renal): > 100 µM
TGI (OVCAR-5 ovarian): > 100 µM
TGI (PC-3 prostate): > 100 µM
TGI (A549 NSCLC): > 100 µM
TGI (UACC-62 melanoma): > 100 µM
TGI (HCT-15 colon): > 100 µM
TGI (NCI-H460 lung): > 100 µM
TGI (SF-539 CNS): > 100 µM
TGI (K-562 leukemia): > 100 µM
TGI (HOP-92 NSCLC): > 100 µM
TGI (M14 melanoma): > 100 µM
TGI (KM12 colon): > 100 µM
TGI (HOP-62 NSCLC): > 100 µM
TGI (OVCAR-4 ovarian): > 100 µM
TGI (SK-MEL-28 melanoma): > 100 µM
TGI (UO-31 renal): > 100 µM
TGI (RPMI-8226 leukemia): > 100 µM
TGI (ACHN renal): > 100 µM
TGI (OVCAR-3 ovarian): > 100 µM
TGI (SK-MEL-5 melanoma): > 100 µM
TGI (NCI-H23 lung): > 100 µM
TGI (MDA-N): > 100 µM
TGI (786-0 renal): > 100 µM
TGI (A498 renal): > 100 µM
TGI (EKVX NSCLC): > 100 µM
TGI (HCT-116 colon): > 100 µM
TGI (SNB-19 CNS): > 100 µM
TGI (MOLT-4 leukemia): > 100 µM
TGI (SW-620 colon): > 100 µM
TGI (MDA-MB-231 breast): > 100 µM
TGI (CCRF-CEM leukemia): > 100 µM
TGI (MDA-MB-435): > 100 µM
TGI (NCI-H226 lung): > 100 µM
TGI (U251 CNS): > 100 µM
TGI (BT-549 breast): > 100 µM

From PubChem BioAssay (NCI)
